Laboratory results: US6696440B1, “Treatment of asthma with MEK inhibitors” (Warner-Lambert Company, priority 1999, dated 2004)
Marks after values point to notes of the source that are not given here.

Tests used:
OVA-primed splenocytes = experiment: Inhibition of antigen-induced IL-5 production by OVA-primed splenocytes in vitro; type: cell-based, mice; settings: Mus musculus, Splenocyte, 72 h; OVA-sensitized splenocytes cultured 3 days with 200 μg/mL OVA; IL-5 by ELISA
Procedure: (§1) For each of these assays, female C57BL/6 mice obtained from the Jackson Laboratory (Bar Harbor, Me.) were given an intraperitoneal (i.p.) injection of ovalbumin (OVA, Grade V, Sigma Chemical Company, St. Louis, Mo.) adsorbed to aluminum hydroxide (10 μg OVA+9 mg aluminum hydroxide in 200 μL saline). This sensitizes OVA-specific lymphocytes for subsequent restimulation either in vivo or in vitro.
The first set of experiments was designed to determine whether the MEK inhibitors could prevent antigen-induced production of IL-5 by the OVA-primed splenocytes in vitro. IL-5 is required for the differentiation, migration, and survival of pulmonary eosinophils, which are thought to be responsible for much of the pathology associated with human asthma. In order to examine the effects of MEK inhibitors on IL-5 production, OVA-sensitized mice were sacrificed by cervical dislocation 14 days after sensitization (Day 14), the spleens were excised and disaggregated, and the erythrocytes were lysed. The splenocytes were washed and resuspended at […] in complete medium consisting of RPMI 1640 (Gibco BRL, Gaithersburg, Md.) with 10% heat-inactivated fetal calf serum (Hyclone, Logan, Utah), 55 μM 2-mercaptoethanol, 50 U/mL penicillin G, 50 μg/mL streptomycin sulfate, and 2 mM L-glutamine (Gibco BRL). The splenocytes were then cultured at 37° C. in the presence of 200 μg/mL OVA. MEK inhibitors were also added to the cultures from sterile 10 mM stock solutions (in DMSO). After 3 days, the culture medium was recovered and assayed for IL-5 by specific ELISA.

BAL eosinophils [1] = experiment: Active OVA-induced eosinophilic lung inflammation in mice, oral dosing; type: in vivo; settings: for % Inhibition of BAL Eosinophils / % Inhibition of BAL Eosinophilia: oral; for % Inhibition of BAL Eosinophilia: 4 days (Day 13 to Day 16); for activity against BAL eosinophils (in words): multiple doses, dosing for 4 days (Table 4); for inhibitory activity against BAL eosinophils (in words): oral dosing schedule of 9 days (Table 5)
Procedure: as §1
The final set of experiments was designed to test whether MEK inhibitors could inhibit active OVA-induced eosinophilic lung inflammation in mice. Mice were sensitized with OVA/aluminum hydroxide on Day 0 as described above. On Day 14, the mice were challenged by aerosol with 1.5% OVA, as described above for the adoptive-transfer recipients. One group of eight sensitized mice was dosed orally with vehicle (0.5% hydroxypropylmethylcellulose/0.25% TWEEN-80). Other groups of sensitized mice (8 mice per group) were given oral doses of a MEK inhibitor. The test compound was dissolved in the vehicle, and the volume for each dosage was adjusted to 200 μL, so that each test animal received the same oral volume. In experiments reported in Table 3 and Table 4, the MEK inhibitor was administered starting on Day 13 (ie, 13 days after initial sensitization and 1 day prior to aerosol challenge), and continued daily through Day 16 (4 days total). In experiments reported in Table 5, the MEK inhibitor was administered starting on Day 7 (ie, 7 days after initial sensitization and 7 days prior to aerosol challenge), and continued daily through […]. On Day 17 of each experiment (17 days following the initial OVA challenge, and 3 days after the OVA aerosol challenge), all animals including controls were anesthetized, cannulated, and lavaged as previously described. The number of BAL eosinophils was determined as described above.

BAL eosinophils [2] = experiment: Adoptive (passive) transfer of eosinophilic lung inflammation by MEK inhibitor-treated splenocytes; type: in vivo; settings: spleen cell culture treated with 10 μM compound; cells transferred to naive mice; OVA aerosol challenge
Procedure: as §1
When OVA-sensitized spleen cells are restimulated with OVA in vitro for 3 days, as described above, the spleen cells not only produce IL-5, but also acquire the ability to induce eosinophilic lung inflammation when transferred into naive recipient mice. The critical cell type responsible for this adoptively-transferred activity is thought to be IL-5-producing T lymphocytes. […] Splenocytes from OVA restimulation cultures, with or without the addition of MEK inhibitors were harvested after 3 days of culture, washed three times, and resuspended at 1×10^8 cells/mL in sterile saline. Groups of five naive (unsensitized) […] mice were injected i.p. with 200 μL of the cell suspension (2×10^7 cells). Three days after transfer of cells, the recipient mice were challenged with a 12-minute inhalation of an aerosol formulation of 1.5% OVA in saline (weight/volume), the mist being produced by a nebulizer (small particle generator model SPAG-2, ICN Pharmaceuticals, Costa Mesa, Calif.). Three days after aerosol challenge, the mice were anesthetized with an i.p. injection of an anesthetic mixture comprising Ketamine, acepromazine, and xylazine. The trachea of each mouse was exposed and cannulated. The lungs and upper airways were lavaged with 0.5 mL of cold (5° C.) phosphate buffered saline (PBS). The cells within a 200 μL portion of the bronchoalveolar lavage (BAL) fluid were enumerated using a Coulter counter (Model ZB 1, Coulter Electronics, Hialeah, Fla.). […] The number of eosinophils in the BAL fluid was determined by multiplying the percentage of eosinophils by the total cell count.

[3] = 4-day compound dosing, 10 mg/kg
[4] = 4-day compound dosing, 30 mg/kg
[5] = 4-day compound dosing, 100 mg/kg

## Cc1cc(I)ccc1Nc1cc(F)ccc1C(=O)O [Example 1, 4-Fluoro-2-(4-iodo-2-methylphenylamino)benzoic Acid]
other
  melting point: 224 to 229.5 °C

## Cc1cc(I)ccc1Nc1ccccc1C(=O)O [Example 19, 2-(4-Iodo-2-methyl-phenylamino)-benzoic acid]
other
  melting point: 218 to 223 °C

## COc1ccc(Nc2ccc(I)cc2)c(C(=O)O)c1 [Example 24, 2-(4-Iodo-phenylamino)-5-methoxy-benzoic acid]
other
  melting point: 208 to 211 °C

## Cc1cc(I)ccc1Nc1ccccc1-c1nnn[nH]1 [Example 208, (4-iodo-2-methyl-phenyl)-[2-(1H-tetrazol-5-yl)-phenyl]amine]
other
  melting point: 231 °C (dec.)

## COc1cccc(-c2cc(=O)c3ccccc3o2)c1N [PD 098059, 2-(2-amino-3-methoxyphenyl)-4-oxo-4H-[1]benzopyran, reference compound]
OVA-primed splenocytes
  IC50: 17400 nM

## Cc1cc(I)ccc1Nc1cc(F)ccc1C(=O)NO [PD 170611, 2-(2-Methyl-4-iodophenylamino)-N-hydroxy-4-fluorobenzamide]
other
  melting point: 61 to 75 °C
OVA-primed splenocytes
  IC50: 1120 nM

## Cc1cc(I)ccc1Nc1c(C(=O)NO)cc(Br)c(F)c1F [PD 171984, 2-(2-Methyl-4-iodophenylamino)-N-hydroxy-3,4-difluoro-5-bromobenzamide]
BAL eosinophils [1]; [3]
  % Inhibition of BAL Eosinophils: 38.4* %
BAL eosinophils [1]; [4]
  % Inhibition of BAL Eosinophils: 46.6* %
BAL eosinophils [1]; [5]
  % Inhibition of BAL Eosinophils: 58.4* %
BAL eosinophils [1]; 9-day compound dosing, 10 mg/kg, Experiment 1
  % Inhibition of BAL Eosinophils: −13.74%
BAL eosinophils [1]; 9-day compound dosing, 10 mg/kg, Experiment 2
  % Inhibition of BAL Eosinophils: 50.15* %
BAL eosinophils [1]; 9-day compound dosing, 30 mg/kg, Experiment 1
  % Inhibition of BAL Eosinophils: 80.64* %
BAL eosinophils [1]; 9-day compound dosing, 30 mg/kg, Experiment 2
  % Inhibition of BAL Eosinophils: 37.23* %
BAL eosinophils [1]; 9-day compound dosing, 100 mg/kg, Experiment 1
  % Inhibition of BAL Eosinophils: 88.40* %
BAL eosinophils [1]; 9-day compound dosing, 100 mg/kg, Experiment 2
  % Inhibition of BAL Eosinophils: 54.77* %
BAL eosinophils [1]; Dose 100
  % Inhibition of BAL Eosinophilia: 55.26* %
BAL eosinophils [1]; initial analysis, dosed orally for 4 days (Table 3)
  inhibition of pulmonary eosinophilia (in words): demonstrated any inhibition of pulmonary eosinophilia
BAL eosinophils [1]
  activity against BAL eosinophils (in words): appears active
  inhibitory activity against BAL eosinophils (in words): statistically significant inhibitory activity
other
  melting point: 80 to 90 °C
BAL eosinophils [2]
  % Inhibition of BAL Eosinophils: 99.82%
OVA-primed splenocytes
  IC50: 117 nM

## Cc1cc(I)ccc1Nc1c(C(=O)NOCC2CC2)cc(Br)c(F)c1F [PD 177168, 2-(2-Methyl-4-iodophenylamino)-N-cyclopropylmethoxy-3,4-difluoro-5-bromobenzamide]
BAL eosinophils [1]; Dose 100
  % Inhibition of BAL Eosinophilia: −23.38%
OVA-primed splenocytes
  IC50: 1200 nM

## O=C(NOCC1CC1)c1cc(Br)c(F)c(F)c1Nc1ccc(I)cc1Cl [PD 184161, 2-(2-Chloro-4-iodophenylamino)-N-cyclopropylmethoxy-3,4-difluoro-5-bromobenzamide]
BAL eosinophils [1]; Dose 100
  % Inhibition of BAL Eosinophilia: −32.53%
OVA-primed splenocytes
  IC50: 1150 nM

## O=C(NOCC1CC1)c1ccc(F)c(F)c1Nc1ccc(I)cc1Cl [PD 184352, 2-(2-Chloro-4-iodophenylamino)-N-cyclopropylmethoxy-3,4-difluorobenzamide]
BAL eosinophils [1]; [3]
  % Inhibition of BAL Eosinophils: −22.7%
BAL eosinophils [1]; [4]
  % Inhibition of BAL Eosinophils: −153.8%
BAL eosinophils [1]; [5]
  % Inhibition of BAL Eosinophils: −8.2%
BAL eosinophils [1]; 9-day compound dosing, 10 mg/kg
  % Inhibition of BAL Eosinophils: −42.99%
BAL eosinophils [1]; 9-day compound dosing, 30 mg/kg
  % Inhibition of BAL Eosinophils: 1.83%
BAL eosinophils [1]; 9-day compound dosing, 100 mg/kg
  % Inhibition of BAL Eosinophils: 59.85%
BAL eosinophils [1]; Dose 150
  % Inhibition of BAL Eosinophilia: −5.41%
BAL eosinophils [1]
  activity against BAL eosinophils (in words): does not
  inhibitory activity against BAL eosinophils (in words): shown to inhibit the asthma-like response in mice
BAL eosinophils [2]
  % Inhibition of BAL Eosinophils: 99.46%
OVA-primed splenocytes
  IC50: 1620 nM

## O=C(NO)c1cc(Br)c(F)c(F)c1Nc1ccc(I)cc1Cl [PD 184386, 2-(2-Chloro-4-iodophenylamino)-N-hydroxy-3,4-difluoro-5-bromobenzamide]
BAL eosinophils [1]; Dose 100
  % Inhibition of BAL Eosinophilia: −33.24%
BAL eosinophils [2]
  % Inhibition of BAL Eosinophils: 99.78%
OVA-primed splenocytes
  IC50: 23 nM
